Data as given in the supplement of paper PMC11061612.

Legend:
Test in all cases: combination Emax (second highest fraction inhibited in the dose matrix, 72 h); higher = more inhibition; extreme values may be limits of the assay
[1] = test system: OVISE (Ovarian Carcinoma)
In short: (§1)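 Cell lines grown in DMEM/F12 or RPMI with 10% FBS were plated in 1536-well plates and held 24 hours at 37°C, 5% CO2 before 72 hours of exposure to two-drug dose matrices, with DMSO typically at 0.2%. CellTiter-Glo 2.0 luminescence gave viability, which was converted to inhibition. Vehicle wells were set to 0 and blank wells to 1. Combination Emax is the second-highest inhibition in the matrix, and Bliss excess is the observed combination effect minus the expected EA + EB − EA·EB, where EA and EB are the single-agent effects.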

GI-1 (Glioblastoma) = test system: GI-1 (Glioblastoma)
In short: as §1

[2] = test system: EMC-BAC-2 (Non-Small Cell Lung Carcinoma)
In short: as §1

[3] = test system: KP-2 (Pancreatic Carcinoma)
In short: as §1

EW-18 (Ewing's Sarcoma) = test system: EW-18 (Ewing's Sarcoma)
In short: as §1

[4] = test system: MFE-319 (Endometrial Carcinoma)
In short: as §1

[5] = test system: NCI-H2347 (Lung Adenocarcinoma)
In short: as §1

[6] = test system: NCI-H2405 (Lung Adenocarcinoma)
In short: as §1

[7] = test system: H-EMC-SS (Chondrosarcoma)
In short: as §1

[8] = test system: NCI-H1573 (Lung Adenocarcinoma)
In short: as §1

EW-3 (Ewing's Sarcoma) = test system: EW-3 (Ewing's Sarcoma)
In short: as §1

[9] = test system: JHH-7 (Hepatocellular Carcinoma)
In short: as §1

[10] = test system: SCC-3 (B-Cell Non-Hodgkin's Lymphoma)
In short: as §1

IMR-5 (Neuroblastoma) = test system: IMR-5 (Neuroblastoma)
In short: as §1

[11] = test system: DG-75 (Burkitt's Lymphoma)
In short: as §1

EW-13 (Ewing's Sarcoma) = test system: EW-13 (Ewing's Sarcoma)
In short: as §1

[12] = test system: SCC-9 (Oral Cavity Carcinoma)
In short: as §1

[13] = test system: KYSE-50 (Esophageal Squamous Cell Carcinoma)
In short: as §1

[14] = test system: BV-173 (Chronic Myelogenous Leukemia)
In short: as §1

[15] = test system: SNU-C1 (Colorectal Carcinoma)
In short: as §1

| SMILES | combination Emax [1] | combination Emax (GI-1 (Glioblastoma)) | combination Emax [2] | combination Emax [3] | combination Emax (EW-18 (Ewing's Sarcoma)) | combination Emax [4] | combination Emax [5] | combination Emax [6] | combination Emax [7] | combination Emax [8] | combination Emax (EW-3 (Ewing's Sarcoma)) | combination Emax [9] | combination Emax [10] | combination Emax (IMR-5 (Neuroblastoma)) | combination Emax [11] | combination Emax (EW-13 (Ewing's Sarcoma)) | combination Emax [12] | combination Emax [13] | combination Emax [14] | combination Emax [15] |
| --- | --- | --- | --- | --- | --- | --- | --- | --- | --- | --- | --- | --- | --- | --- | --- | --- | --- | --- | --- | --- |
| Cc1c2c(nn1C)CSCc1cc(n(C)n1)CSc1cc(c3ccccc3c1)OCCCc1c(C(=O)O)n(C)c3c-2c(Cl)ccc13 [AZD5991] + CN(C)CCCOc1ccc(-c2ccc3ncc4c(c3c2)n(C2CCOCC2)c(=O)n4C)cn1 [AZD0156] (first compound max 1 µM, 7x7, partner max 1 µM) | 0.283 | 0.774 | 0.745 | 0.18 | 0.94 | 0.78 | 0.239 | 0.228 | 0.431 | 0.394 | 0.662 | 0.14 | 0.396 | 0.985 | 0.395 | 0.401 | 0.269 | 0.292 | 0.95 | 0.424 |
| Cn1cnc2c(F)c(Nc3ccc(Br)cc3Cl)c(C(=O)NOCCO)cc21 [Selumetinib] + CCN(CCO)CCCOc1ccc2c(Nc3cc(CC(=O)Nc4cccc(F)c4)[nH]n3)ncnc2c1 [AZD2811] (first compound max 10 µM, 7x7, partner max 1 µM) | 0.273 | 0.286 | 0.398 | 0.468 | 0.7 | 0.262 | 0.312 | 0.408 | 0.263 | 0.412 | 0.444 | 0.25 | 0.43 | 1 | 0.265 | 0.218 | 0.494 | 0.409 | 0.952 | 0.723 |
| CN(CCO)CC[C@H](CSc1ccccc1)Nc1ccc(S(=O)(=O)NC(=O)c2ccc(N3CCC([C@@H](O)c4ccccc4-c4ccc(Cl)cc4)CC3)cc2)cc1S(=O)(=O)C(F)(F)F [AZD4320] + Cc1cc2ncnn2cc1Nc1ncc2c(n1)n(C1CCOCC1)c(=O)n2C [AZD7648] (first compound max 1 µM, 7x7, partner max 10 µM) | 0.779 | 0.457 | 0.258 | 0.857 | 0.883 | 0.264 | 0.432 | 0.186 | 0.524 | 0.135 | 0.958 | 0.344 | 0.337 | 0.738 | 0.472 | 0.672 | 0.306 | 0.096 | 0.961 | 0.633 |
| NC1(C(=O)N[C@@H](CCO)c2ccc(Cl)cc2)CCN(c2ncnc3[nH]ccc23)CC1 [Capivasertib] + Cn1cnc2c(F)c(Nc3ccc(Br)cc3Cl)c(C(=O)NOCCO)cc21 [Selumetinib] (first compound max 10 µM, 7x7, partner max 10 µM) | 0.454 | 0.622 | 0.622 | 0.454 | 0.656 | 0.644 | 0.423 | 0.573 | 0.797 | 0.495 | 0.24 | 0.418 | 0.363 | 0.168 | 0.398 | 0.249 | 0.723 | 0.298 | 0.718 | 0.703 |
| NC1(C(=O)N[C@@H](CCO)c2ccc(Cl)cc2)CCN(c2ncnc3[nH]ccc23)CC1 [Capivasertib] + CC(C)n1c(=O)n(C)c2cnc3cc(F)c(-c4ccc(OCCCN5CCCCC5)nc4)cc3c21 [AZD1390] (first compound max 10 µM, 7x7, partner max 0.3 µM) | 0.387 | 0.658 | 0.462 | 0.102 | 0.596 | 0.368 | 0.196 | 0.274 | 0.432 | 0.195 | 0.258 | 0.315 | 0.216 | 0.161 | 0.38 | 0.28 | 0.26 | 0.14 | 0.51 | 0.528 |
| COc1cccc(OCCCN)c1-c1cc(Nc2cnc(C#N)cn2)n[nH]1 [Prexasertib] + C=CCn1c(=O)c2cnc(Nc3ccc(N4CCN(C)CC4)cc3)nc2n1-c1cccc(C(C)(C)O)n1 [AZD1775] (first compound max 1 µM, partner max 1 µM) | 0.763 | 0.994 | 0.608 | 0.613 | 0.723 | 0.807 | 0.481 | 0.388 | 0.554 | 0.713 | 0.732 | 0.765 | 1 | 1 | 0.995 | 0.611 | 0.482 | 0.852 | 0.994 | 0.847 |
